pIC50: −log10 of the molar value. The source made the active and inactive calls.
Key:
[1] = Luminescence Cell-Based Dose Retest to Confirm Inhibitors of Cancer Stem Cells. [Related pubchem assays (depositor defined):AID2717, AID2721]; assay type: functional; conditions: Homo sapiens
[2] = target: Neurotensin receptor type 1 (Homo sapiens, UniProt P30989); assay type: functional;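 also: Image-based confirmatory dose-response assay measuring agonist activity at NTR1; NTR1-expressing U2OS osteosarcoma cells imaged for beta-arrestin GFP spot formation; agonist potency where compounds increase beta-arrestin recruitment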
[3] = target: Cyclin-dependent kinase 5/CDK5 activator 1 (Homo sapiens, UniProt Q00535); test: CDK5/p35 kinase inhibitors, dose response, biochemical, cherry-picked samples, set 2 (AID 504545)
HeLa = test: HeLa cell cytotoxicity, dose response, cytotoxicity control, 24 h, cherry-picked samples (AID 504726); assay type: functional, cell-based; conditions: Homo sapiens;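 also: potency for cytotoxicity as loss of luminescence signal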
Caspase-6 = target: T1, Caspase-6 (Homo sapiens, UniProt P55212); test: human caspase-6 inhibitors, dose response, biochemical, VEID-R110 fluorescence, cherry-pick (AID 720632)
T1 sequence (P55212 whole entry): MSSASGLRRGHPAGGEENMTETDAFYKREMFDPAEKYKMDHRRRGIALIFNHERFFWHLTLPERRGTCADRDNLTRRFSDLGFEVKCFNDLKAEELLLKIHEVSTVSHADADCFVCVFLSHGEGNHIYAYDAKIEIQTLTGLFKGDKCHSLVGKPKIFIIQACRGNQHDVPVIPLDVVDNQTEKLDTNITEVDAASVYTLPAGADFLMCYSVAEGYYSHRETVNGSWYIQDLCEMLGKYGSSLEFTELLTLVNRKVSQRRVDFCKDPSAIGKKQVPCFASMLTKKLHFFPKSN

Aspartyl aminopeptidase = target: T2, Aspartyl aminopeptidase (Plasmodium falciparum 3D7, UniProt Q8I2J3)
T2 sequence (Q8I2J3 whole entry): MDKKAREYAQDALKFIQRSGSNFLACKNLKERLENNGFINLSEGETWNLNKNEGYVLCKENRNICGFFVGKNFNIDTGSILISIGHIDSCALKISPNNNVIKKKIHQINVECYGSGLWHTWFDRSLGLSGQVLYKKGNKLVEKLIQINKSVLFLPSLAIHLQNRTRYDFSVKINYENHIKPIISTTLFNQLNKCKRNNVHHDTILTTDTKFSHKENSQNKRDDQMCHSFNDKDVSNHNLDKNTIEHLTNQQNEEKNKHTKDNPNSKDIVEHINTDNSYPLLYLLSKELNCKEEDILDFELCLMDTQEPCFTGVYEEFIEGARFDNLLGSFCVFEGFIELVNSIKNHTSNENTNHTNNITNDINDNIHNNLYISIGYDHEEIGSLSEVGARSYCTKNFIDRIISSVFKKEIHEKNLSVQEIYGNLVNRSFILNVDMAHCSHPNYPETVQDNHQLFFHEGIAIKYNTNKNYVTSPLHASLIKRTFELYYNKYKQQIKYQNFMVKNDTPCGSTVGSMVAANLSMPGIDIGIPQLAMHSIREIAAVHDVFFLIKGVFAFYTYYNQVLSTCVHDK

[4] = target: T3, Heat shock factor protein 1 (Mus musculus, UniProt P38532); test: HSF1 potentiators in luciferase reporter cells, confirmation, cell-based, NIH3T3, luminescence, dose retest (AID 435004); assay type: functional;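 also: stress induced by proteasome inhibitor MG132 added 30 min after compound; luciferase reporter driven by HSF1 response element in NIH3T3 cells; actives raise luminescence as potentiators of the MG132 stress response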
T3 sequence (P38532 whole entry): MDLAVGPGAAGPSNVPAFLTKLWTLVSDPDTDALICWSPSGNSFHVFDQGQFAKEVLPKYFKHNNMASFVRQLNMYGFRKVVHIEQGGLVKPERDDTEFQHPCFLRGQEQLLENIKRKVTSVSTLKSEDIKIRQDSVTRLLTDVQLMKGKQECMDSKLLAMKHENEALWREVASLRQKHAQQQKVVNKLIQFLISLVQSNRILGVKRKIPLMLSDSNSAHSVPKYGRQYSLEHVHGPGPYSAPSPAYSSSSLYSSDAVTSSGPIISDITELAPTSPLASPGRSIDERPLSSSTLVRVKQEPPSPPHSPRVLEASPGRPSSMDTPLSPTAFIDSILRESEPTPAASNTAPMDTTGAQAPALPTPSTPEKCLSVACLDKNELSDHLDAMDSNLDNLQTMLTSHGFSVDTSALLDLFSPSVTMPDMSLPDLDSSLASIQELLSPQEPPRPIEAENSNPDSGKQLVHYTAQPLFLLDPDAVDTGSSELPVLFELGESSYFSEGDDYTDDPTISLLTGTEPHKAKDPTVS

Procathepsin L = Procathepsin L (Homo sapiens, UniProt P07711)
[5] = THP-1 cell cytotoxicity, dose response, cytotoxicity control for non-replicating M. tuberculosis project (AID 489025); assay type: functional
[6] = target: T4, Polyadenylate-binding protein 1 (Homo sapiens, UniProt P11940); test: PABP1 MLLE–PAM2 binding inhibitor potency, dose response, biochemical, fluorescence polarization, FITC-PAM2 peptide (AID 602259); assay type: functional; conditions: read-out: IC50_Mean
[7] = target: Acyl-homoserine lactone acylase PvdQ (Pseudomonas aeruginosa (strain LESB58), UniProt Q9I194); test: P. aeruginosa PvdQ acylase inhibitors, dose response, biochemical, fluorescence, plate reader and imaging, cherry-picks (AID 493231)
[8] = target: T4, Polyadenylate-binding protein 1; test: PABP1 MLLE–PAM2 interaction inhibitors, dose response, miRNA deadenylation inhibitor project, biochemical, fluorescence polarization, Cy5-PAM2 peptide, secondary (AID 602260); assay type: functional; conditions: read-out: IC50_Mean
cells = assay type: functional
[9] = microbe, parasite or virus in culture; assay type: functional; conditions: Mycobacterium tuberculosis
[10] = target: T5, Microphthalmia-associated transcription factor (Homo sapiens, UniProt O75030); test: TRPM1 promoter luciferase signal decrease, dose response, MITF inhibitor project, cell-based, SK-MEL-5, cherry-picked, set 3 (AID 493073); assay type: functional
T5 sequence (O75030 whole entry): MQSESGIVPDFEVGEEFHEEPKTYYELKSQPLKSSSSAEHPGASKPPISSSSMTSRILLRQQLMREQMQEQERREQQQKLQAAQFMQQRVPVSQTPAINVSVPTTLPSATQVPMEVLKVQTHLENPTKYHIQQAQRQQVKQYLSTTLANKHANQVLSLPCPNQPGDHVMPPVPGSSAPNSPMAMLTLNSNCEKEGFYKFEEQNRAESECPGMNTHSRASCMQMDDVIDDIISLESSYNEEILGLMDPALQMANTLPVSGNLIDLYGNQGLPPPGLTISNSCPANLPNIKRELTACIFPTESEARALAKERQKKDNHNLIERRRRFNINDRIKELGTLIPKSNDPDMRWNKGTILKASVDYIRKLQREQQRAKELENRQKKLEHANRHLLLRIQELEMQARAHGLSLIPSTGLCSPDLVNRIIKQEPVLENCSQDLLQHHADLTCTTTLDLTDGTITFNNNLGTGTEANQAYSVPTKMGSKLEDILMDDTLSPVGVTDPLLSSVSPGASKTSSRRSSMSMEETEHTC

[11] = cytotoxicity in HEK-293T cells, dose response, cytotoxicity control for BCR NF-kB inhibitor project, luminescence, B-cell screen hits (AID 489021); assay type: functional, cell-based;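 also: HEK-293T cells carrying an NF-kB luciferase reporter; cells exposed to compound for about 14 hours before viability readout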
[12] = Luminescence Cell-Based Dose Response HTS to Identify Activators of 5'UTR Stem-Loop Driven Prion Protein mRNA Translation in H4-C Neuroglioblastoma Cells. [Related pubchem assays: 1829 (Project Summary), 1814 (Primary HTS)]; assay type: functional
H4 = test: Luminescence Cell-Based Dose Response HTS to Identify Activators of 5'UTR Stem-Loop Driven Prion Protein mRNA Translation in H4 Neuroglioblastoma Cells. [Related pubchem assays: 1829 (Project Summary), 1814 (Primary HTS)]; assay type: functional; conditions: Homo sapiens
[13] = Luminescence Cell-Based Dose Retest to Confirm Activators of 5'UTR Stem-Loop Driven Alpha-Synuclein mRNA Translation in H4 Neuroglioblastoma Cells. [Related pubchem assays (depositor defined):AID1813, AID1829]; assay type: functional
[14] = Luminescence Cell-Based Dose Response HTS to Identify Activators of Luciferase Translation or Activity in H4 […] Cells. [Related pubchem assays: 1829 (Project Summary), 1814 (Primary HTS)]; assay type: functional
[15] = Luminescence Cell-Based Dose Response HTS to Identify Activators of Luciferase Translation or Activity in H4-C Neuroglioblastoma Cells. [Related pubchem assays: 1829 (Project Summary), 1814 (Primary HTS)]; assay type: functional
[16] = Luminescence Cell-Based Dose Confirmation HTS to Identify Activators of 5'UTR Stem-Loop Driven Alpha-Synuclein mRNA Translation in H4 Neuroglioblastoma Cells. [Related pubchem assays: 1829 (Project Summary), 1814 (Primary HTS)]; assay type: functional
Cytochrome P450 2D6 = Cytochrome P450 2D6 (Homo sapiens, UniProt P10635); test: qHTS Assay for Inhibitors and Substrates of Cytochrome P450 2D6. [Related pubchem assays: 410 ]; assay type: ADME; conditions: read-out: Potency
Cytochrome P450 2C9 = Cytochrome P450 2C9 (Homo sapiens, UniProt P11712); conditions: Potency
[17] = target: T6, Rac GTPase-activating protein 1 (Homo sapiens, UniProt Q9H0H5); test: MgcRacGAP GTPase-activating activity inhibitors, confirmation, biochemical, ADP Hunter fluorescence, primary and confirmatory (AID 624330); assay type: functional
T6 sequence (Q9H0H5 whole entry): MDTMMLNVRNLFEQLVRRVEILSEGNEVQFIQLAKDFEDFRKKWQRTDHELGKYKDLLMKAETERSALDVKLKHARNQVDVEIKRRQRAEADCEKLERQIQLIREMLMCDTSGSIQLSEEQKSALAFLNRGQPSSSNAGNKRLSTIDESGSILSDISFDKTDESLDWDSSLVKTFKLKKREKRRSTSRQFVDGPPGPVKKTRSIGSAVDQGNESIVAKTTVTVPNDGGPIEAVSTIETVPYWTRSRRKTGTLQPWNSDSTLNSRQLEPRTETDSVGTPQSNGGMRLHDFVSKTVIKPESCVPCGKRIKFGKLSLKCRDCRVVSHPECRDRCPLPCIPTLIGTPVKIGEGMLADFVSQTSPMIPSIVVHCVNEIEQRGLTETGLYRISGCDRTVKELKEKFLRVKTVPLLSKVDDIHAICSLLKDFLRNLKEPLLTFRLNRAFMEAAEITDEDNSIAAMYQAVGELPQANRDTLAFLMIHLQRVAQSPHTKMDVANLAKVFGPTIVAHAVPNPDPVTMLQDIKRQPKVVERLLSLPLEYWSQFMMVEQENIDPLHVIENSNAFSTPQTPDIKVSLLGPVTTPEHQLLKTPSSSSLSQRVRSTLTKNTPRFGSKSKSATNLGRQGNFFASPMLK

Beta-galactosidase = Beta-galactosidase (Escherichia coli, UniProt Q8VNN2); assay type: functional
[18] = target: T7, Kappa-type opioid receptor (Homo sapiens, UniProt P41145); assay type: functional
[19] = target: T7, Kappa-type opioid receptor; assay type: functional; remark: listed apart in the source
[20] = Luminescence Cell-Based Dose Response HTS to Identify Inhibitors of 5'UTR Stem-Loop Driven Prion Protein mRNA Translation in H4 Neuroglioblastoma Cells. [Related pubchem assays: 1827 (Project Summary), 1813 (Primary HTS)]; assay type: functional
[21] = inhibitors of firefly luciferase expression or activity, dose response, H4 neuroglioma cells, luminescence (AID 1990); assay type: functional, cell-based

Cytochrome P450 2C9, sequence (P11712 whole entry): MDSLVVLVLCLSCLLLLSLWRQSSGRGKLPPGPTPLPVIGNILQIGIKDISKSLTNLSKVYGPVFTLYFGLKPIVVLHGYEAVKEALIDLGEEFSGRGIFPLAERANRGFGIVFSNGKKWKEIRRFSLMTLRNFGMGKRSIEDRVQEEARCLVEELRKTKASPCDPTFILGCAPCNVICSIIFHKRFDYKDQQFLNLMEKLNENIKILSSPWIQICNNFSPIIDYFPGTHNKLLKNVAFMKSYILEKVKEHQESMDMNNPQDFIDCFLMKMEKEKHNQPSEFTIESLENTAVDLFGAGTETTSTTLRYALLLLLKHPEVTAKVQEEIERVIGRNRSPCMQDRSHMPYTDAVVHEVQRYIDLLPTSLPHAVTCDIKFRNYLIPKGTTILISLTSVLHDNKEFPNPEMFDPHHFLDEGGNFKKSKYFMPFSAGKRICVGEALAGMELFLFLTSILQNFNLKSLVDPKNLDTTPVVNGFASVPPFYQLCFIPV
Cyclin-dependent kinase 5/CDK5 activator 1, sequence (Q00535 whole entry): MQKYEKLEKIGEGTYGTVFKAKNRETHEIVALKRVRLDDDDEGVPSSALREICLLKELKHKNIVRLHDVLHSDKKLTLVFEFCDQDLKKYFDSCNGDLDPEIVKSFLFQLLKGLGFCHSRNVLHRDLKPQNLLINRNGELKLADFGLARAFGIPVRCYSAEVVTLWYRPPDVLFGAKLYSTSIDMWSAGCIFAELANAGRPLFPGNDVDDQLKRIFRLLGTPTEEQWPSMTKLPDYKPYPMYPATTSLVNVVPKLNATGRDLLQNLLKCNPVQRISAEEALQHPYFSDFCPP
Cyclin-dependent kinase 5/CDK5 activator 1, sequence (Q15078 whole entry, further chain): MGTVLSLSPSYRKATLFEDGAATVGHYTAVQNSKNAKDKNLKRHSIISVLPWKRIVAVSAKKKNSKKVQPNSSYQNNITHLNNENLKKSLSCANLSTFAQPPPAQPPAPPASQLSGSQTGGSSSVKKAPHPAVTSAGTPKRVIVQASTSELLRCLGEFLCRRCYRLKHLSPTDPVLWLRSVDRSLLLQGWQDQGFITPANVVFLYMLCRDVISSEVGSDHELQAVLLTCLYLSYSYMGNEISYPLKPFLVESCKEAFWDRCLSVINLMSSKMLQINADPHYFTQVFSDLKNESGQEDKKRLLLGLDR
T7 sequence (P41145 whole entry): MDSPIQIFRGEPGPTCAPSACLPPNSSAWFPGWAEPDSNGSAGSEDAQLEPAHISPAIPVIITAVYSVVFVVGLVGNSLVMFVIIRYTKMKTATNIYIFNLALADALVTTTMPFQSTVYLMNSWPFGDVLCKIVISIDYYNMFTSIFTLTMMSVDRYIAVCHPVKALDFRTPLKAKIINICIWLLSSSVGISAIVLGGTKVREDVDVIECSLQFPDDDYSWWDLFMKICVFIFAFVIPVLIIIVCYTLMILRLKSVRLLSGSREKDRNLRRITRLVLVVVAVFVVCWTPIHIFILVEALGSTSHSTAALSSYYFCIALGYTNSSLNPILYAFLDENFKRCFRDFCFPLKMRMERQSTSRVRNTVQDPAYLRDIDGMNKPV
T4 sequence (P11940 whole entry): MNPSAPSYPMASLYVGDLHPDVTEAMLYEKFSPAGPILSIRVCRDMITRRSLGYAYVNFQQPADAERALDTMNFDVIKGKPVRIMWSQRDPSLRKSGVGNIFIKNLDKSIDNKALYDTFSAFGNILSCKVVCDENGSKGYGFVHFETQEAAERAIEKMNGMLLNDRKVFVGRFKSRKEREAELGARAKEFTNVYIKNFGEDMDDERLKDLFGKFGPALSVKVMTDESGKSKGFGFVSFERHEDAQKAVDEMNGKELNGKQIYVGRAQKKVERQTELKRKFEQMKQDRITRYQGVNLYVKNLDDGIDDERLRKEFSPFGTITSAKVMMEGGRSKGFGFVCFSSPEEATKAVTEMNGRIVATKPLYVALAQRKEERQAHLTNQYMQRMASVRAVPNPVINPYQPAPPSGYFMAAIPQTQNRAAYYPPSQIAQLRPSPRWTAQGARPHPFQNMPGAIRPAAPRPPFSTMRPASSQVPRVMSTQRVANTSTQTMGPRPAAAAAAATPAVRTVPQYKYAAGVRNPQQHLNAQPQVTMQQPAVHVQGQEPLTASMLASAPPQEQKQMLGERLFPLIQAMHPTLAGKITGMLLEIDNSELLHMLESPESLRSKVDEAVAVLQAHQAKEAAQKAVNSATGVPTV
Neurotensin receptor type 1, sequence (P30989 whole entry): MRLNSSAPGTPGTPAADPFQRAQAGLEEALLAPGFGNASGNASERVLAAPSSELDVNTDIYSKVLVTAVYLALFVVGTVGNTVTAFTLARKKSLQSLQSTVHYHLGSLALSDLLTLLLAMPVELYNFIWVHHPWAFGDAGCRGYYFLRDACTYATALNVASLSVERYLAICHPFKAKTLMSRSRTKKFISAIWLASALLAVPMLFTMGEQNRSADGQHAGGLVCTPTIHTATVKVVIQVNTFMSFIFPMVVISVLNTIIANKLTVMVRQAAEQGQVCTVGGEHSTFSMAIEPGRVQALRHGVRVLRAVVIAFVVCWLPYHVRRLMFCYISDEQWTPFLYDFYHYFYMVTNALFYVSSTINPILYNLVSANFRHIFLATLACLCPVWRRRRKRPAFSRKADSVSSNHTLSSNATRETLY
Procathepsin L, sequence (P07711 whole entry): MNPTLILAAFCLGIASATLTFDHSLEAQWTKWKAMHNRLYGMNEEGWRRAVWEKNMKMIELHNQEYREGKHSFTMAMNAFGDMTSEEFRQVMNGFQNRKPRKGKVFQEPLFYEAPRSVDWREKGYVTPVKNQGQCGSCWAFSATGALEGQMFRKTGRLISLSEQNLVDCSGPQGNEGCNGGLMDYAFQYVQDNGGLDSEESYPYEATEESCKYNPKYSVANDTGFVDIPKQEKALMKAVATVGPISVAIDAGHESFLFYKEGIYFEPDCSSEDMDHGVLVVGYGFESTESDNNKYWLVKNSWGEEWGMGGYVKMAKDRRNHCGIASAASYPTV
Acyl-homoserine lactone acylase PvdQ, sequence (Q9I194 24-193 limits assumed): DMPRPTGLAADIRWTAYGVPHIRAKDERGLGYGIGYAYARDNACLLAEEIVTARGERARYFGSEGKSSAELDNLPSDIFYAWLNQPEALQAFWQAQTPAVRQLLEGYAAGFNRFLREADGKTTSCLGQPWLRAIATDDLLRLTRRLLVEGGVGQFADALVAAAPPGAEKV
Acyl-homoserine lactone acylase PvdQ, sequence (Q9I194 217-762 limits assumed): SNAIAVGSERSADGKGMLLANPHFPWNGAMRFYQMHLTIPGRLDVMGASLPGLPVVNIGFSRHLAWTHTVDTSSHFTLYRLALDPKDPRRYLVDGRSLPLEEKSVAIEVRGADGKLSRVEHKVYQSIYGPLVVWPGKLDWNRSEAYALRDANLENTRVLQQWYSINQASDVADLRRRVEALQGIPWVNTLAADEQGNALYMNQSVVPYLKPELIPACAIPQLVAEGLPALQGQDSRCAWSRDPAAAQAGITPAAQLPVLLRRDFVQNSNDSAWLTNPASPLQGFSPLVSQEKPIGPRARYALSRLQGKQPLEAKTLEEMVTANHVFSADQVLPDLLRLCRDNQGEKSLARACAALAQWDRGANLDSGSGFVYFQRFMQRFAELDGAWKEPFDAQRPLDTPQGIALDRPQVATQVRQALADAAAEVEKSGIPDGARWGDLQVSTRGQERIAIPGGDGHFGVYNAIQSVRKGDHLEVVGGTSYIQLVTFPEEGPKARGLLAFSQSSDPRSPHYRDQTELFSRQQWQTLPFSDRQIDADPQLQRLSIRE
Beta-galactosidase, sequence (Q8VNN2 whole entry): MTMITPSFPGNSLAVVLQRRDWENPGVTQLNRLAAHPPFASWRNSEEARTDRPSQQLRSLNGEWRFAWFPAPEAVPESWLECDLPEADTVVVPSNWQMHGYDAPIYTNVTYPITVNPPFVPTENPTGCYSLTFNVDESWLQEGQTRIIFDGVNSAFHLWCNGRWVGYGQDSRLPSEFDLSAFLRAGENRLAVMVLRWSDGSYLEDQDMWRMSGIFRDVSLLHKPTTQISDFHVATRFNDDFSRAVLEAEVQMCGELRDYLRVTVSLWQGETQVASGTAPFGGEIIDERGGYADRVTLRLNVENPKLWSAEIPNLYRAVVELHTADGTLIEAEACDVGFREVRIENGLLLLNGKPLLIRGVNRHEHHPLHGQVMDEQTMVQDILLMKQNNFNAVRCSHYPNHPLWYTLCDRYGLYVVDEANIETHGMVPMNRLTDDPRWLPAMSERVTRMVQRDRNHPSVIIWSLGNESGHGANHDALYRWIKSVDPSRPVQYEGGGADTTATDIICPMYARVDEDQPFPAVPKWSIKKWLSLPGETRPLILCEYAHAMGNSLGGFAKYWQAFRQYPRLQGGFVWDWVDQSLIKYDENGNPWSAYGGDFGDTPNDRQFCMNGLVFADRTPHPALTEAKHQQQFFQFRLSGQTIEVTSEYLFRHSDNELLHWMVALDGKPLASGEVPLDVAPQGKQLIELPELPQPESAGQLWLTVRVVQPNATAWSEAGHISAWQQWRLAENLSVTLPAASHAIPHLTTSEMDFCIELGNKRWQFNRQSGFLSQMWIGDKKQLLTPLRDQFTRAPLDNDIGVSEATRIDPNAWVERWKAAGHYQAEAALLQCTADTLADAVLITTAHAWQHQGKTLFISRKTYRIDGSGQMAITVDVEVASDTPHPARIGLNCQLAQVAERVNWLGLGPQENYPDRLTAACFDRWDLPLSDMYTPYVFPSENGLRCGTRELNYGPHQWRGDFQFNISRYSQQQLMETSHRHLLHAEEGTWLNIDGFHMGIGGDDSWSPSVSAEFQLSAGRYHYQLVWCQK

SMILES: O=C(Oc1ccc(Br)cc1C(=O)/C=C/c1ccccc1F)c1ccco1
- AC50 [1]: 5.03 µM (active)
- EC50 [2]: 15.9 µM (active)

SMILES: COc1cc2ccccc2ccc1=NO
- AC50 [3]: 34.7 µM (active)

SMILES: O=C(COC(=O)c1ccc([N+](=O)[O-])o1)NCCCc1ccccc1
- AC50 (HeLa): > 350 µM (inactive)
- AC50 (Caspase-6): 35.2 µM (active)

SMILES: O=C(NCCc1ccc(O)c(O)c1)C1COc2ccccc2O1 (stereo not drawn)
- IC50 (Aspartyl aminopeptidase): 2.11 µM (active)
- EC50 [4]: 28.5 µM (active)
- IC50 (Procathepsin L): > 59.6 µM (not active)

SMILES: Cc1ccc(O)c(C(=O)c2cc(C#N)c(=O)n(-c3nccs3)c2)c1
- CC50 [5]: 29.6 µM (active)

SMILES: CCOCC(=O)Nc1nc2ccc(C)cc2s1
- IC50 [6]: > 66 µM (inactive)
- AC50 [7]: 24 µM (active)
- IC50 [8]: > 66 µM (inactive)
- IC50 (cells): 34.5 µM (active)

SMILES: O=[N+]([O-])c1ccc(Sc2cc[n+]([O-])c3ccccc23)c([N+](=O)[O-])c1
- CC50 [9]: 12.1 µM (active)
- AC50 [10]: 5.92 µM (active)
- IC50 [11]: > 80 µM (inactive)

SMILES: Cc1scc(C(=O)Nn2cnnc2)c1-c1ccccc1
- IC50 (Aspartyl aminopeptidase): 3.13 µM (active)
- IC50 (Procathepsin L): > 59.6 µM (not active)

SMILES: Cc1csc2nc(CCNS(=O)(=O)c3cccs3)cn12
- EC50 [12]: 13.1 µM (active)
- EC50 (H4): 96.8 µM (active)
- EC50 [13]: 1.85 µM (active)
- EC50 [14]: 45.9 µM (active)
- EC50 [4]: 254 µM (active)
- EC50 [15]: 3.07 µM (active)
- EC50 [16]: 2.18 µM (active)

SMILES: CC(C)C[C@@H](CC(=O)N[C@H](CC(=O)N[C@@H]1CCNC[C@H]1C(=O)N[C@H](CC(=O)N[C@@H](CCC(=O)O)CC(=O)O)CC(C)C)C(C)C)NC(=O)[C@@H]1CCCC[C@H]1N
- AC50 (Cytochrome P450 2D6): 39.8 µM (inconclusive)
- AC50 (Cytochrome P450 2C9): 39.8 µM (inconclusive)

SMILES: O=C(COc1ccccc1)NCC(=O)N/N=C/c1ccc(O)cc1O
- IC50 [17]: 69.4 µM (active)
- EC50 [2]: > 40 µM (inactive)

SMILES: COc1ccc(C)c(-n2c(=O)n(Cc3ccccc3)c(=O)c3[nH]cnc32)c1
- EC50 (Beta-galactosidase): 9.23 µM (active)
- IC50 [18]: 6.84 µM (active)
- pIC50 [19]: < 4.49

SMILES: Cc1nc2cc(-c3ccccc3)nn2c(C)c1CCC(=O)NCc1ccco1
- EC50 [20]: 9.65 µM (active)
- EC50 [21]: 17.6 µM (active)
- IC50 [11]: > 80 µM (inactive)

SMILES: CCOC(=O)OCC1OC(C#Cc2ccc(C(C)(C)C)cc2)C=CC1OC(=O)OCC (stereo not drawn)
- AC50 (Cytochrome P450 2C9): 0.0025 µM (inconclusive)

SMILES: CO/N=C/c1cn(-c2ccc(Cl)cc2)nn1
- AC50 [7]: 5.97 µM (active)

SMILES: Nc1nc(Nc2ccccc2)nc(NCCO)c1[N+](=O)[O-]
- AC50 [3]: 17.5 µM (active)
